# From US8859513B2, “Use of 1-beta-D-ribofuranosyl-1H-1,2,4-triazole-3-carboxamide for the treatment of infectious salmon anemia” (Laboratorio de Diagnostico Gam, S.A., priority 2010, dated 2014)
# Like-named read-outs stand apart in the source and are kept apart here.
# What was measured:
# ISA virus [1] = assay: Inhibition assay of the replicative cycle of ISAV in SHK-1 cells (real-time RT-PCR of supernatant); format: cell-based, Infectious Salmon Anemia Virus
# ISA virus [2] = conditions: for hematocrit: untreated infected C3 42.1%
# [3] = patients treated with Rebetol; cited from earlier work
# IPNV = conditions: cited from earlier work
# in vitro = conditions: Atlantic salmon
# RNA viruses = conditions: regularly shown, in general; read-out: EC50 values (effective concentration 50%); cited from earlier work
# [4] = system: VHSV virus (Viral Hemorrhagic Septicemia Virus); conditions: cited from earlier work
# [5] = Toxicity in healthy uninfected smolt fish (tank C2), oral medicated feed; conditions: tank C2, dose of 1600 μg/mL (so in the source), normal 44-64%
# ISA virus [6] = conditions: 400 μg/Kg intraperitoneal
smiles,measurement,setting,value
CCOC(=O)C1=C[C@@H](OC(CC)CC)[C@H](NC(C)=O)[C@@H](N)C1 [oseltamivir],inhibition of the replication of ISA virus,"ISA virus [1]; concentrations as high as 300 μg/mL, FIG. 1",no more than 60%
"NC(=O)c1ncn([C@@H]2O[C@H](CO)[C@@H](O)[C@H]2O)n1 [ribavirin, 1-beta-D-ribofuranosyl-1H-1,2,4-triazole-3-carboxamide]",viral load in dead fish,"ISA virus [2]; highest dose (T1) compared with T2 and untreated C3, FIG. 8",significantly lower
same,viral load in intraperitoneally infected fish,"ISA virus [2]; highest dose (T1), FIG. 9",lower
same,signs at necropsy,"ISA virus [2]; infected treated fish of tanks T1 and T2, FIGS. 14 and 15",mild inflammatory signs
same,viral load in intraperitoneally infected fish versus untreated (C3),"ISA virus [2]; lowest dose (T2), FIG. 9",practically the same
same,hematocrit,"ISA virus [2]; tank T1, dose 800 μg/mL (so in the source)",~45%
same,hematocrit,"ISA virus [2]; tank T2, dose 400 μg/mL (so in the source)",~45%
same,viral load versus untreated fish (C3),"ISA virus [2]; treated fish T1 (800 μg/kg) and T2 (400 μg/kg), heart, real-time RT-PCR",in all cases lower than that of the untreated fish
same,primary toxicity,[3],triggers hemolytic anemia
same,effect of the higher dose on rate of death,IPNV; 400 μg,produced no greater decrease in the rate of death
same,decrease in rate of dead fish,"IPNV; bath exposure once during two hours, increasing concentrations",about 5%
same,CC50 at 3 days,in vitro,> 400 µg/mL
same,EC50,RNA viruses,≥ 1 µM
same,RNA inhibition,"[4]; 25 μg/ml added at 0 hours post infection, at 10 hours post infection",99.8%
same,inhibition of the virus,"[4]; EPC cells, concentrations of 5, 10 and 25 μg/ml",strong inhibition
same,average hematocrit,[5],54%
same,EC50,"ISA virus [1]; Infectious salmon anemia virus, 72 h, read-out: concentration which inhibits 50% of ISA virus replication (EC50)",~0.4 µg/mL
same,condition of the analyzed organs during necropsies,ISA virus [6],slight improvement
same,viral load over treatment days,"ISA virus [6]; heart, FIG. 17",downward trend
O=C(O)C1=C[C@@H](O)[C@@H](O)[C@H](O)C1 [shikimic acid],viral replication inhibition,"ISA virus [1]; up to concentrations of 300 μg/ml, FIG. 2",no viral replication inhibition
